According to EP0942906B1, “COMPOUNDS USEFUL FOR INHIBITION OF FARNESYL PROTEIN TRANSFERASE” (SCHERING CORPORATION, priority 1996, dated 1998):
Read-outs that look alike come from different tables or passages of the source.

Assays:
Settings in all cases: range stated for the listed group of compounds
[1] = target: farnesyl protein transferase (Homo sapiens, UniProt P49354+P49356); assay: FPT IC50, inhibition of farnesyl protein transferase, in vitro enzyme assay (procedure of WO 95/10516); assay type: biochemical
Experimental: (§1) FPT IC50 (inhibition of farnesyl protein transferase, in vitro enzyme assay) and COS Cell IC50 (Cell-Based Assay) were determined following the assay procedures described in WO 95/10516, published April 20, 1995. GGPT IC50 (inhibition of geranylgeranyl protein transferase, in vitro enzyme assay), Cell Mat Assay, and anti-tumor activity (in vivo anti-tumor studies) could be determined by the assay procedures described in WO 95/10516.

COS Cell = COS Cell IC50 (Cell-Based Assay, procedure of WO 95/10516)
Experimental: as §1

Human tumor cells = assay: Soft Agar Assay (anchorage-independent growth, colony count after MTT staining); assay type: cell-based
Experimental: Anchorage-independent growth is a characteristic of tumorigenic cell lines. Human tumor cells are suspended in growth medium containing 0.3% agarose and an indicated concentration of a farnesyl transferase inhibitor. The solution is overlayed onto growth medium solidified with 0.6% agarose containing the same concentration of farnesyl transferase inhibitor as the top layer. After the top layer is solidified, plates are incubated for 10-16 days at 37°C under 5% CO2 to allow colony outgrowth. After incubation, the colonies are stained by overlaying the agar with a solution of MTT (3-[4,5-dimethylthiazol-2-yl]-2.5-diphenyltetrazolium bromide, Thiazolyl blue) (1 mg/mL in PBS). Colonies can be counted and the IC50's can be determined.

[2] = ras form not stated, read-out: FPT IC50
[3] = H-ras, read-out: FPT IC50 (H-ras)
[4] = k-ras, read-out: FPT IC50 (k-ras)

Chain of farnesyl protein transferase (P49356 whole entry, one chain of several): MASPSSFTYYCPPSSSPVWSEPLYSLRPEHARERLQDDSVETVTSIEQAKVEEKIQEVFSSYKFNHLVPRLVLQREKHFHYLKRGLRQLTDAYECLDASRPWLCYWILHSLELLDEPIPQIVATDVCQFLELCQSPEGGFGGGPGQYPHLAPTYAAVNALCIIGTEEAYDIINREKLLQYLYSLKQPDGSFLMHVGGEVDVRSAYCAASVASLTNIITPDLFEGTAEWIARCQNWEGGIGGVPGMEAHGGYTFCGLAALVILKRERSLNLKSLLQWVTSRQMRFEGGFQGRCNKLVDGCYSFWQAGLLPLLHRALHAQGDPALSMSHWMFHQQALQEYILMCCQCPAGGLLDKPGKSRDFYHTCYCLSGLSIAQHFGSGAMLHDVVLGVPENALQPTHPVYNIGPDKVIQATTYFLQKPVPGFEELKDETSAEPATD

For CCOC(=O)CC(=O)N1CCC(CC(=O)N2CCC([C@H]3c4ncc(Br)cc4CCc4cc(Cl)cc(Br)c43)CC2)CC1 [Compound 8.0-B], the IC50 [1, 2] was 0.7 to 18 nM.

For O=C(CC1CCN(C(=O)CN2C(=O)CSC2=O)CC1)N1CCC([C@H]2c3ncc(Br)cc3CCc3cc(Cl)cc(Br)c32)CC1 [Compound 79.0-B], the IC50 [1, 3] was 2 to 31.7 nM, the IC50 [1, 2] was 0.7 to 18 nM and the IC50 (COS Cell; read-out: Cos Cell) was ≥ 9 nM. For the same compound, the IC50 (Human tumor cells) was ≥ 19.5 nM.

In the case of O=C(CCN1CCCCC1)N1CCC(CC(=O)N2CCC(C3c4ncc(Br)cc4CCc4cc(Cl)cc(Br)c43)CC2)CC1 (single isomer, unassigned; (+)) [Compound 14.2], the IC50 [1, 3] is reported as 2 to 31.7 nM and the IC50 (COS Cell; read-out: Cos Cell IC50) is reported as 10 to 700 nM.

For NC(=O)CC(=O)N1CCC(CC(=O)N2CCC([C@H]3c4ncc(Br)cc4CCc4cc(Cl)cc(Br)c43)CC2)CC1 [Compound 50.0-B], the IC50 [1, 2] was 0.7 to 18 nM, the IC50 (COS Cell; read-out: Cos Cell) was ≥ 9 nM and the IC50 (Human tumor cells) was ≥ 19.5 nM.

For CC(=O)C(=O)N1CCC(CC(=O)N2CCC([C@H]3c4ncc(Br)cc4CCc4cc(Cl)cc(Br)c43)CC2)CC1 [Compound 72.0-B], the IC50 [1, 2] was 0.7 to 18 nM, the IC50 (COS Cell; read-out: Cos Cell) was ≥ 9 nM and the IC50 (Human tumor cells) was ≥ 19.5 nM.

O=C(CC1CCN(C(=O)Cn2cnc(-c3ccccc3)c2)CC1)N1CCC([C@H]2c3ncc(Br)cc3CCc3cc(Cl)cc(Br)c32)CC1 [Compound 20.0-B] gave an IC50 [1, 2] of 0.7 to 18 nM.

For COC(=O)CCCC(=O)N1CCC(CC(=O)N2CCC(C3c4ncc(Br)cc4CCc4cc(Cl)cc(Br)c43)CC2)CC1 (centres unmarked) [Compound 15.1], the IC50 [1, 3] was 2 to 31.7 nM and the IC50 (COS Cell; read-out: Cos Cell IC50) was 10 to 700 nM.

In the case of O=C(CO)N1CCC(CC(=O)N2CCC([C@H]3c4ncc(Br)cc4CCc4cc(Cl)cc(Br)c43)CC2)CC1 [Compound 37.0-B], the IC50 [1, 2] is reported as 0.7 to 18 nM, the IC50 (COS Cell; read-out: Cos Cell) is reported as ≥ 9 nM and the IC50 (Human tumor cells) is reported as ≥ 19.5 nM.

With CC(C)(C)OC(=O)N1CCC[C@H]1C(=O)N1CCC(CC(=O)N2CCC([C@H]3c4ncc(Br)cc4CCc4cc(Cl)cc(Br)c43)CC2)CC1 [Compound 7.0] the IC50 [1, 3] was 2 to 31.7 nM, the IC50 [1, 4] was 14.5 to 71.2 nM and the IC50 (COS Cell; read-out: Cos Cell IC50) was 10 to 700 nM.

For CC(C)=NOCCC(=O)N1CCC(CC(=O)N2CCC([C@H]3c4ncc(Br)cc4CCc4cc(Cl)cc(Br)c43)CC2)CC1 [Compound 23.0-B], the IC50 [1, 3] was 2 to 31.7 nM, the IC50 [1, 2] was 0.7 to 18 nM and the IC50 (COS Cell; read-out: Cos Cell) was ≥ 9 nM. The IC50 (Human tumor cells) was ≥ 19.5 nM.

O=C(NCC(=O)N1CCC(CC(=O)N2CCC([C@H]3c4ncc(Br)cc4CCc4cc(Cl)cc(Br)c43)CC2)CC1)c1ccccc1 [Compound 12.0] was tested, and the IC50 [1, 3] was 2 to 31.7 nM and the IC50 (COS Cell; read-out: Cos Cell IC50) was 10 to 700 nM.

In the case of O=C(CON=Cc1cc[n+]([O-])cc1)N1CCC(CC(=O)N2CCC(C3c4ncc(Br)cc4CCc4cc(Cl)cc(Br)c43)CC2)CC1 (centres unmarked) [Compound 22.0-B], the IC50 [1, 2] is reported as 0.7 to 18 nM, the IC50 (COS Cell; read-out: Cos Cell) is reported as ≥ 9 nM and the IC50 (Human tumor cells) is reported as ≥ 19.5 nM.

CN(C)CCC(=O)N1CCC(CC(=O)N2CCC(C3c4ncc(Br)cc4CCc4cc(Cl)cc(Br)c43)CC2)CC1 (single isomer, unassigned; (+)) [Compound 12.3] was tested, and the IC50 [1, 3] was 2 to 31.7 nM, the IC50 [1, 4] was 14.5 to 71.2 nM and the IC50 (COS Cell; read-out: Cos Cell IC50) was 10 to 700 nM. For the same compound, the IC50 (Human tumor cells) was ≥ 19.5 nM.

For O=C(Cc1c[nH]cn1)N1CCC(CC(=O)N2CCC([C@H]3c4ncc(Br)cc4CCc4cc(Cl)cc(Br)c43)CC2)CC1 [Compound 30.0-B], the IC50 [1, 2] was 0.7 to 18 nM, the IC50 (COS Cell; read-out: Cos Cell) was ≥ 9 nM and the IC50 (Human tumor cells) was ≥ 19.5 nM.

COC(NC(=O)CC(=O)N1CCC(CC(=O)N2CCC([C@H]3c4ncc(Br)cc4CCc4cc(Cl)cc(Br)c43)CC2)CC1)C(C)C (some centres unmarked) [Compound 51.0-B] was tested, and the IC50 [1, 2] was 0.7 to 18 nM and the IC50 (COS Cell; read-out: Cos Cell) was ≥ 9 nM.

For N[C@@H](Cc1ccccc1)C(=O)N1CCC(CC(=O)N2CCC([C@H]3c4ncc(Br)cc4CCc4cc(Cl)cc(Br)c43)CC2)CC1 [Compound 8.0], the IC50 [1, 3] was 2 to 31.7 nM, the IC50 [1, 4] was 14.5 to 71.2 nM and the IC50 (COS Cell; read-out: Cos Cell IC50) was 10 to 700 nM.

O=C(CC1CCN(C(=O)CC2CCCCO2)CC1)N1CCC([C@H]2c3ncc(Br)cc3CCc3cc(Cl)cc(Br)c32)CC1 (some centres unmarked) [Compound 114.3-B] was tested, and the IC50 [1, 2] was 0.7 to 18 nM and the IC50 (COS Cell; read-out: Cos Cell) was ≥ 9 nM.

In the case of O=C(CC1CCN(C(=O)Cn2cnc3cccnc32)CC1)N1CCC([C@H]2c3ncc(Br)cc3CCc3cc(Cl)cc(Br)c32)CC1 [Compound 13.0-B], the IC50 [1, 4] is reported as 14.5 to 71.2 nM, the IC50 [1, 2] is reported as 0.7 to 18 nM and the IC50 (COS Cell; read-out: Cos Cell) is reported as ≥ 9 nM. For the same compound, the IC50 (Human tumor cells) was ≥ 19.5 nM.

With Cc1nccn1CC(=O)N1CCC(CC(=O)N2CCC([C@H]3c4ncc(Br)cc4CCc4cc(Cl)cc(Br)c43)CC2)CC1 [Compound 10.0-B] the IC50 [1, 4] was 14.5 to 71.2 nM, the IC50 [1, 2] was 0.7 to 18 nM and the IC50 (COS Cell; read-out: Cos Cell) was ≥ 9 nM. The IC50 (Human tumor cells) was ≥ 19.5 nM.

Compound CC(C)(C)OC(=O)N[C@@H](Cc1ccccc1)C(=O)N1CCC(CC(=O)N2CCC([C@H]3c4ncc(Br)cc4CCc4cc(Cl)cc(Br)c43)CC2)CC1 [Compound 5.0] has an IC50 [1, 3] of 2 to 31.7 nM.

For CC(C)(C)OC(=O)NCC(=O)N1CCC(CC(=O)N2CCC([C@H]3c4ncc(Br)cc4CCc4cc(Cl)cc(Br)c43)CC2)CC1 [Compound 2.0], the IC50 [1, 3] was 2 to 31.7 nM and the IC50 [1, 4] was 14.5 to 71.2 nM.

With NCC(=O)N1CCC(CC(=O)N2CCC([C@H]3c4ncc(Br)cc4CCc4cc(Cl)cc(Br)c43)CC2)CC1 [Compound 16.0] the IC50 (COS Cell; read-out: Cos Cell) was ≥ 9 nM and the IC50 (Human tumor cells) was ≥ 19.5 nM.

CN(C)CCCC(=O)N1CCC(CC(=O)N2CCC([C@H]3c4ncc(Br)cc4CCc4cc(Cl)cc(Br)c43)CC2)CC1 [Compound 12.2] showed an IC50 [1, 3] of 2 to 31.7 nM.

CCOC(=O)CC(=O)N1CCC(CC(=O)N2CCC(C3c4ncc(Br)cc4CCc4cc(Cl)cc(Br)c43)CC2)CC1 (centres unmarked) [Compound 15.3] was tested, and the IC50 [1, 3] was 2 to 31.7 nM and the IC50 (COS Cell; read-out: Cos Cell IC50) was 10 to 700 nM.

With O=C(CC1CCN(C(=O)CN2CCS(=O)(=O)CC2)CC1)N1CCC(C2c3ncc(Br)cc3CCc3cc(Cl)cc(Br)c32)CC1 (single isomer, unassigned; (+)) [Compound 14.1] the IC50 [1, 3] was 2 to 31.7 nM and the IC50 (COS Cell; read-out: Cos Cell IC50) was 10 to 700 nM.

For O=C(CCN1CCCCC1)N1CCC(CC(=O)N2CCC([C@H]3c4ncc(Br)cc4CCc4cc(Cl)cc(Br)c43)CC2)CC1 [Compound 7.0-B], the IC50 [1, 4] was 14.5 to 71.2 nM, the IC50 [1, 2] was 0.7 to 18 nM and the IC50 (COS Cell; read-out: Cos Cell) was ≥ 9 nM.

In the case of CC(C)(C)OC(=O)NCCC(=O)N1CCC(CC(=O)N2CCC([C@H]3c4ncc(Br)cc4CCc4cc(Cl)cc(Br)c43)CC2)CC1 [Compound 86.0-B], the IC50 [1, 2] is reported as 0.7 to 18 nM.

Work on C[C@H](NC(=O)OC(C)(C)C)C(=O)N1CCC(CC(=O)N2CCC([C@H]3c4ncc(Br)cc4CCc4cc(Cl)cc(Br)c43)CC2)CC1 [Compound 3.0] yielded an IC50 [1, 3] of 2 to 31.7 nM and an IC50 [1, 4] of 14.5 to 71.2 nM.

O=C(CC1CCN(C(=O)CN2CCOCC2)CC1)N1CCC([C@H]2c3ncc(Br)cc3CCc3cc(Cl)cc(Br)c32)CC1 [Compound 13.0] showed an IC50 [1, 3] of 2 to 31.7 nM and an IC50 (COS Cell; read-out: Cos Cell IC50) of 10 to 700 nM.

NCCCC(=O)N1CCC(CC(=O)N2CCC([C@H]3c4ncc(Br)cc4CCc4cc(Cl)cc(Br)c43)CC2)CC1 [Compound 90.0-B] was tested, and the IC50 [1, 2] was 0.7 to 18 nM.

In the case of C[C@@H](NC(=O)OC(C)(C)C)C(=O)N1CCC(CC(=O)N2CCC([C@H]3c4ncc(Br)cc4CCc4cc(Cl)cc(Br)c43)CC2)CC1 [Compound 4.0], the IC50 [1, 3] is reported as 2 to 31.7 nM and the IC50 [1, 4] is reported as 14.5 to 71.2 nM.

N[C@@H](Cc1c[nH]cn1)C(=O)N1CCC(CC(=O)N2CCC([C@H]3c4ncc(Br)cc4CCc4cc(Cl)cc(Br)c43)CC2)CC1 [Compound 9.0] was tested, and the IC50 [1, 3] was 2 to 31.7 nM and the IC50 [1, 4] was 14.5 to 71.2 nM.

For CC(C)(C)OC(=O)N[C@@H](Cc1c[nH]cn1)C(=O)N1CCC(CC(=O)N2CCC([C@H]3c4ncc(Br)cc4CCc4cc(Cl)cc(Br)c43)CC2)CC1 [Compound 6.0], the IC50 [1, 3] was 2 to 31.7 nM, the IC50 [1, 4] was 14.5 to 71.2 nM and the IC50 (COS Cell; read-out: Cos Cell) was ≥ 9 nM. It also gave an IC50 (COS Cell; read-out: Cos Cell IC50) of 10 to 700 nM.

For CCOC(CC(=O)N1CCC(CC(=O)N2CCC([C@H]3c4ncc(Br)cc4CCc4cc(Cl)cc(Br)c43)CC2)CC1)OCC [Compound 76.0-B], the IC50 [1, 2] was 0.7 to 18 nM.

Compound CS(=O)(=O)NCC(=O)N1CCC(CC(=O)N2CCC([C@H]3c4ncc(Br)cc4CCc4cc(Cl)cc(Br)c43)CC2)CC1 [Compound 11.0] has an IC50 [1, 3] of 2 to 31.7 nM and an IC50 (COS Cell; read-out: Cos Cell IC50) of 10 to 700 nM.
